Common to all, as to assay: NCI-60 cell line screen, 48 h
In test [1] the test system is 786-0.
The subject of test [2] is A498.
The test system of test [3] is CCRF-CEM.
In test [4] the test system is HCT-116.
The subject of test [5] is HOP-92.
For test [6], the system named is Hs-578T.
In test [7] the test system is IGROV-1.
Test [8] deals with KM12.
In test [9] the test system is MCF7.
The subject of test [10] is MDA-N.
Test [11] concerns NCI-H226.
For test [12], the system named is NCI-H23.
In test [13] the test system is OVCAR-3.
Test [14] relates to OVCAR-5.
Test [15] deals with OVCAR-8.
The test system of test [16] is RPMI-8226.
For test [17], the system named is SF-268.
In test [18] the test system is SNB-19.

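Cells were grown in 96-well plates and exposed to each compound for 48 hours at five concentrations; endpoints were interpolated linearly between bracketing concentrations, or set to the highest concentration if not reached. At the GI50, growth is halved.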 Activity calls are given as the source filed them. Rule as the data show it: active = GI50 up to about 1.1 µM and inactive = higher. Non-standard residues stand in square brackets, D forms with d. Residues, ends and D or L forms follow the SMILES beside them. ξ: configuration not given here. *: point of attachment. ξF = NC(Cc1ccccc1)C(=O)O; Cbz = O=C(OCc1ccccc1)*

With `CCOC(=O)CNC(=O)C(Cc1ccccc1)NC(=O)OCc1ccccc1` (stereo not given) (Cbz-[ξF]-Gly-OEt), the GI50 in [1] is > 100 µM (inactive); in [2], 53.8 µM (inactive); in test [3], > 100 µM (inactive); in test [4], > 100 µM (inactive); in test [5], > 100 µM (inactive); in test [6] it was 70.8 µM (inactive). For the same compound, the GI50 in test [7], in test [8], in [9], in [10], in test [11] and in test [12] was > 100 µM (inactive) each time. Also, the GI50 in [13], in test [14], in test [15], in [16], in test [17] and in test [18] was > 100 µM (inactive) each time.

Regarding `CCOC(=O)C1=NN(c2ccc(C)cc2)C2(c3ccccc3)C=C(c3ccccc3)N(C)CCN12` (stereo not given), the GI50 in test [1], in test [2], in test [3], in test [4], in test [5] and in test [6] was > 100 µM (inactive) in each case. In addition, the GI50 in test [7] is > 100 µM (inactive); in test [8], 48.5 µM (inactive); in test [9] it was > 100 µM (inactive); in test [10], > 100 µM (inactive); in test [11] it was > 100 µM (inactive); in [12] it was > 100 µM (inactive). Further, the GI50 in test [13] was > 100 µM (inactive); in test [14], > 100 µM (inactive); in [15], > 100 µM (inactive); in [16] it was 29 µM (inactive); in [17], > 100 µM (inactive); in [18], > 100 µM (inactive).

Regarding `Clc1ccc(CCNC2(c3cc4ccccc4s3)CCCCC2)cc1Cl`, the GI50 was 18.1 µM (inactive) in test [1]; 19.1 µM (inactive) in test [2]; 12.9 µM (inactive) in test [3]; 12.4 µM (inactive) in [4]; 3.84 µM (inactive) in [5]; 42.5 µM (inactive) in test [6]. For the same compound, the GI50 in test [7] was 40.8 µM (inactive); in test [8] it was 21.8 µM (inactive); in test [9], 17 µM (inactive); in [10], 32.3 µM (inactive); in test [11] it was 17.3 µM (inactive); in test [12], 26.5 µM (inactive). Further, the GI50 in [13] is 20.6 µM (inactive); in [14], 19.5 µM (inactive); in test [15] it was 31.9 µM (inactive); in test [16], 11.5 µM (inactive); in test [17] it was 53 µM (inactive); in [18] it was 30.5 µM (inactive).

Take `COc1ccc(/N=C/C=C/Nc2ccc(OC)cc2)cc1`: the GI50 in test [1] is 4 µM (inactive); in [2] it was 14 µM (inactive); in test [3], 6.28 µM (inactive); in [4] it was 3.66 µM (inactive); in test [5], 15.3 µM (inactive); in [6], 17.5 µM (inactive). For the same compound, the GI50 in [7] was 11.6 µM (inactive); in test [8], 4.54 µM (inactive); in test [9], 4.75 µM (inactive); in [10], 4.78 µM (inactive); in test [11], 17.5 µM (inactive); in test [12], 19.6 µM (inactive). Also, the GI50 in test [13] is 1.84 µM (inactive); in test [14] it was 15.5 µM (inactive); in test [15], 3.3 µM (inactive); in test [16], 8.81 µM (inactive); in test [17], 7.43 µM (inactive); in test [18], 3.43 µM (inactive).

Consider `c1ccc2/c3[nH]/c(c2c1)=N\c1ccc(cc1)-c1nc2ccc(cc2o1)/N=c1/[nH]/c(c2ccccc12)=N/c1ccc2nc(oc2c1)-c1ccc(cc1)\N=3`, for which the GI50 is 31 µM (inactive) in [1]; 33.5 µM (inactive) in [2]; 2.26 µM (inactive) in test [3]; 32.8 µM (inactive) in test [4]; 37.3 µM (inactive) in test [5]; > 100 µM (inactive) in [6]. Further, the GI50 is 47.2 µM (inactive) in test [7]; 35.1 µM (inactive) in [8]; 37.8 µM (inactive) in test [9]; 27.4 µM (inactive) in [10]; 68.2 µM (inactive) in test [11]; 43.4 µM (inactive) in test [12]. Also, the GI50 in test [13] was 26.5 µM (inactive); in [14], > 100 µM (inactive); in test [15], > 100 µM (inactive); in test [16] it was 18.9 µM (inactive); in test [17], 15.3 µM (inactive); in test [18] it was 26.1 µM (inactive).

With `O=c1cc(N2CCN(c3cc(=O)n4ccccc4n3)CC2)oc2ccccc12`, the GI50 in test [1] is > 76 µM (inactive); in test [2] it was > 84.5 µM (inactive); in [3], 6.7 µM (inactive); in [4], > 100 µM (inactive); in [5] it was 72.4 µM (inactive); in test [6] it was 36.2 µM (inactive). Besides, the GI50 was 95.5 µM (inactive) in test [7]; 35.4 µM (inactive) in test [8]; > 70.5 µM (inactive) in test [9]; > 100 µM (inactive) in test [10]; > 76.2 µM (inactive) in [11]; 99.1 µM (inactive) in test [12]. Further, the GI50 in [13] was > 100 µM (inactive); in [14] it was > 100 µM (inactive); in test [15], > 51.4 µM (inactive); in test [16] it was 23 µM (inactive); in [17], 25.6 µM (inactive); in test [18] it was > 55.5 µM (inactive).

With `CCN(CC)CCCNc1c2cc(OC)ccc2nc2cccc([N+](=O)[O-])c12`, the GI50 in [1] is 0.071 µM (active); in test [2], 0.0127 µM (active); in [3], 0.128 µM (active); in test [4], 0.0327 µM (active); in test [5] it was 0.0484 µM (active); in test [6] it was 0.138 µM (active). Further, the GI50 in test [7] was 0.102 µM (active); in [8], 0.11 µM (active); in [9], 0.0333 µM (active); in test [10] it was 0.129 µM (active); in test [11], 0.204 µM (active); in [12], 0.0746 µM (active). The GI50 in test [13] is 0.034 µM (active); in [14], 0.0832 µM (active); in test [15], 0.0904 µM (active); in [16], 0.0535 µM (active); in test [17], 0.0841 µM (active); in test [18], 0.286 µM (active).

Consider `CN1C(=O)N/C(=C\c2ccc(S(=O)(=O)NN)cc2)C1=O`, for which the GI50 in [1], in test [2], in [3], in test [4], in test [5] and in [6] was > 100 µM (inactive) throughout. For the same compound, the GI50 in test [7], in test [8], in [9], in test [10], in test [11] and in test [12] was > 100 µM (inactive) in each case. For the same compound, the GI50 in [13], in test [14], in test [15], in [16], in test [17] and in test [18] was > 100 µM (inactive) each time.

In the case of `O=C(O)c1ccc(CI)cc1`, the GI50 was 3.24 µM (inactive) in [1]; 20.8 µM (inactive) in test [2]; 9.57 µM (inactive) in test [3]; 14.5 µM (inactive) in test [4]; 15.8 µM (inactive) in [5]; 41 µM (inactive) in test [6]. The GI50 was 21.1 µM (inactive) in [7]; 14.3 µM (inactive) in [9]; 15.5 µM (inactive) in [10]; 22.2 µM (inactive) in test [11]; 12.7 µM (inactive) in test [12]; 11.2 µM (inactive) in test [13]. Also, the GI50 in test [14] was 18.7 µM (inactive); in [15], 21.9 µM (inactive); in test [16], 20.8 µM (inactive); in [17], 15.4 µM (inactive); in test [18], 13.8 µM (inactive).

Consider `Cc1ccc(/C=C2\CN(C)CC3C2=NN(c2ccccc2)C3c2ccc(C)cc2)cc1` (stereo not given), for which the GI50 was > 100 µM (inactive) in test [1]; 35.3 µM (inactive) in test [2]; 29 µM (inactive) in test [3]; > 100 µM (inactive) in test [4]; > 100 µM (inactive) in [5]; > 100 µM (inactive) in [6]. Also, the GI50 in test [7], in test [8], in test [9], in [10], in test [11] and in [12] was > 100 µM (inactive) throughout. Moreover, the GI50 in [13] is > 100 µM (inactive); in [14], > 10 µM (inactive); in [15], > 100 µM (inactive); in test [17] it was > 100 µM (inactive); in test [18] it was 74.6 µM (inactive).

Consider `C[N+](C)(C)C1(C(=O)[O-])CC1`, for which the GI50 in test [1], in test [2], in test [3], in test [4], in test [5] and in [6] was > 100 µM (inactive) each time. Further, the GI50 in test [7], in [9], in test [10], in [11], in test [12] and in test [13] was > 100 µM (inactive) each time. The GI50 in [14], in test [15], in [16], in test [17] and in test [18] was > 100 µM (inactive) each time.

The values above are taken from ChEMBL document CHEMBL1201862, “PubChem BioAssay data set” (2004).
